Data as given in a melting point compilation (Tetko et al.; mined from patent text by program, amines drawn as free bases though some values may be those of a salt).

Row | Compound | melting point
1 | Cc1ccc(S(=O)(=O)OCC2COc3cc(Cl)c(Cl)cc3O2)cc1 (stereo not given) | 124 to 125 °C
2 | O=CC(Nc1ccc2c(c1)OCC(=O)N2)N1CCC(Cc2ccc(F)cc2)CC1 (stereo not given) | 156 to 161 °C
3 | COCOc1ccc(CCC(=O)c2c(OC)cc(OC)c(CCC(C)C)c2O)cc1OC | 69 to 70 °C
4 | COC(=O)CCN1CCCC2(Cc3ccc(Br)cc3)C(=O)N(c3cc(Cl)nc(Cl)c3)C(=O)N12 (stereo not given) | 157 °C
5 | O=CN1CCN(c2nc3cccccc-3n2)CC1 | 170 to 173 °C
6 | N#CSCc1ccc(C(=O)c2ccc(Cl)cc2)cc1 | 129 to 131 °C
7 | O=C(O)C1=Cc2cc(Cl)c(Oc3ccc(Cl)cc3Cl)cc2OC1C(F)(F)F (stereo not given) | 233 to 234 °C
8 | O=c1c2ccccc2nc(-c2ccccc2)n1CCN1CCC(c2c[nH]c3ccccc23)CC1 | 191 °C
9 | NS(=O)(=O)c1ccc(-n2nc(CCCNC(=O)Nc3ccccc3)cc2-c2ccccc2)cc1 | 171 to 172 °C
10 | CSc1ccc(C(=O)Nc2ccc3ccc(Cl)nc3n2)s1 | 235 °C
11 | N#CC1=C(C2CC2)Nc2n[nH]cc2C1c1cccc2nocc12 (stereo not given) | 248 °C
12 | COC(=O)C(OC(=O)c1ccc(C(=O)O)cc1)C(=O)OC | 104 to 107 °C
13 | O=C(NC(=O)c1c(F)cccc1F)Nc1cc(C(F)(F)F)cc(C(F)(F)F)n1 | 152 °C
14 | O=C(CC1CCCC1)NC[C@H]1CN(c2ccc3c(c2)CCCc2cn[nH]c2-3)C(=O)O1 | 205 to 208 °C
15 | O=C1Nc2ccccc2N(C(=O)C2CC2)c2cscc21 | 245 to 247 °C
16 | COc1ccc(-c2ccc(C#N)cc2)cc1-c1nc2cc(C#N)ccc2[nH]1 | 289 to 290 °C
17 | O=C(CCC1CCCCC1)NC1N=C(c2ccccc2)c2ccccc2NC1=S (stereo not given) | 113 to 119 °C
18 | CCc1cnc(C2=NC(C)(C(C)C)C(=O)N2)c(C(=O)NCCCCCC(=O)O)c1 (stereo not given) | 76 to 81 °C
19 | O=C1CCCC(=NNc2ccccc2)C1 | 187 to 189 °C
20 | Cc1ccc(-c2nc(C(F)(F)F)cn2-c2ccc(S(C)(=O)=O)cc2)nc1 | 196 °C
21 | Cc1csc(-c2nc(-c3ccc(=O)n(C(C)C)n3)c(-c3ccccc3)nc2N)n1 | 238 to 240 °C
22 | COc1ccc(NN=C(C)C)cc1 | 163 to 164 °C
23 | CCOC(=O)Cn1ncc(-c2ccc(OC)cc2)c1-c1ccccc1 | 81 to 84 °C
24 | C#CCOc1cc(Oc2ccccc2C)ncn1 | 64.8 °C

Row | Compound | melting point
25 | CCOC(=O)C(Cc1ccc(OC)cc1)c1cc2cc(Br)ccc2s1 (stereo not given) | 62 to 65 °C
26 | N#CC=C1CCc2ccc3ncoc3c21 | 166 to 168 °C
27 | COc1ccc(C(=O)c2c(N)sc(C)c2C)cc1 | 132 to 133 °C
28 | Cc1cccc(-c2c3c(cc4ccc(O)cc24)-c2ccc(O)cc2CO3)c1 | 219 to 222 °C
29 | Cc1ccccc1-c1nc(-c2ccccc2Cl)n[nH]1 | 109 to 111 °C
30 | Fc1ccc(C(c2ccncc2)C2CCCCC2)cc1 (stereo not given) | 78 to 81 °C
31 | Nc1ccc(-n2ccc(=O)cc2)cc1N | 257 to 260 °C
32 | COC(=O)c1ccc(OC2=C3N=C4CCCCC4=C3C(Cc3ccccc3F)C=C2)o1 (stereo not given) | 121 to 122 °C
33 | COC(=O)c1cccn1-c1cc2[nH]c(=O)c(=O)n(C3CCCCC3)c2cc1[N+](=O)[O-] | 211 to 212 °C
34 | COC(=O)CCCc1cc2nc(Cl)ccc2n1S(=O)(=O)c1ccc(Cl)cc1Cl | 100 to 101 °C
35 | O=C(O)c1cc2cccnc2[nH]1 | > 260 °C
36 | CCCCn1c(=O)n(O)c(=O)c2cc(F)c(N3CCCC3)nc21 | 153 to 155 °C
37 | Cc1ccc2c(c1)CC(=O)c1cc(C)ccc1O2 | 62 to 62.5 °C
38 | CCOc1cc(C(CC(=O)OC)N2Cc3ccccc3C2=O)ccc1OC (stereo not given) | 78 to 80 °C
39 | CC1(C)CCC(C)(C)c2cc(-c3cccc(-c4ccc(C(=O)O)cc4)c3O)ccc21 | 121 °C
40 | COC(=O)[C@H](Cc1ccc(NC(=O)c2c(Cl)cccc2Cl)cc1)NC(=O)c1ccc(C(=O)Nc2cccc(O)c2)cc1Cl | 230 to 232 °C
41 | CC(C)[C@H](C/C=C/C[C@H](C(=O)N1C(=O)OC[C@@H]1Cc1ccccc1)C(C)C)C(=O)N1C(=O)OC[C@@H]1Cc1ccccc1 | 108 to 109 °C
42 | CCC1c2cccn2-c2ccc(F)cc2N1S(=O)(=O)c1ccc(O)c(Cl)c1 (stereo not given) | 180 to 184 °C
43 | CCCC(O)C1(c2onc(-c3ccc(O)cc3)c2-c2ccccc2)CC1 (stereo not given) | 139 to 140 °C
44 | Cc1cc2c(c3ccc(=O)[nH]c13)OC(CNC(=O)CN(C)C(=O)OC(C)(C)C)C2 (stereo not given) | 190 to 191 °C
45 | NCC#CC1(Cl)C=CC=CC1C(=O)c1ccccc1Cl (stereo not given) | 81 to 82 °C
46 | COC(=O)c1cc(-c2ccccc2Cl)c(=O)n2ncc3ccc(Cl)cc3c12 | 200 to 202 °C
47 | CCCc1c(C(=O)NCc2ccc(-c3ccc(OCC#N)c(Br)c3)cc2)cnn1-c1ccccc1 | 102 to 109 °C
48 | Cn1c(=O)n(-c2ccnc(N)c2)c2ccccc21 | 204 to 205 °C

Row | Compound | melting point
49 | CC(=O)OCC1OC(n2cnc(C#N)n2)C(OC(C)=O)C1OC(C)=O (stereo not given) | 96 to 97 °C
50 | c1ccc(CC2CCc3ccccc3N2)cc1 (stereo not given) | 187 to 190 °C
51 | COCC(NC(C)C)c1c[nH]c2cccc(Oc3ccc(Cl)cc3)c12 (stereo not given) | 149 to 150 °C
52 | Cc1ccccc1NC(=O)C1(C)CCCCC1 | 138 °C
53 | CCNc1nc(SC)ncc1CO | 152 to 156 °C
54 | CCOC(=O)C(=O)Nc1c([N+](=O)[O-])cc(S(=O)(=O)NC(=O)C(=O)OCC)c2c1CCCC2 | 140 to 142 °C
55 | CCCOC(=O)N=P(c1ccccc1)(c1ccccc1)c1ccccc1 | 90 to 91 °C
56 | Cc1cccc(N2CCN(CCc3ccc(NC(=O)NCCCCl)cc3)CC2)c1 | 168 °C
57 | Cn1cc(C2=C(c3c4n(c5ccccc35)CCC(NC(=O)OC(C)(C)C)C4)C(=O)NC2=O)c2ccccc21 (stereo not given) | 153 to 155 °C
58 | FC(F)(F)c1ccc(-c2cc(C(F)(F)F)n3ncc(-c4nc(-c5cccnc5)no4)c3n2)cc1 | 199 °C
59 | CN1CCC(c2cccc(F)c2)(C(C)(C)O)CC1 | 158 to 159 °C
60 | COc1nc(C)c(C)nc1NC(=O)N1CCN(c2cc(F)cc(F)c2)CC1 | 153 to 154 °C
61 | O=C(CCCC(=O)N1C(=O)OC[C@@H]1c1ccccc1)c1ccc(F)cc1 | 91 °C
62 | COc1cccc(-c2c(C3CCN(C)CC3)[nH]c(=O)c3ccccc23)c1 | 181 to 183 °C
63 | CCn1ncc(CC(=O)O)c1OCCCc1cn(-c2ccc(C(F)(F)F)cn2)nc1C(C)C | 120 to 121 °C
64 | Cc1nc2cc(Oc3cc(-c4ccc(C(C)(C)C)cc4)ncn3)ccc2s1 | 163 to 165 °C
65 | CC(=O)SCC(=O)NCCSC=CSCCNC(=O)CSC(C)=O | 129 °C
66 | CN=C1N(C)C(=O)CN1c1ccc(Cl)cc1 | 150 to 152 °C
67 | COc1ccc(C2=NNC(=O)[C@H]3CC=CC[C@@H]23)cc1OC (relative stereo) | 173 to 174 °C
68 | COc1cccc2c1-c1ccc(NS(C)(=O)=O)cc1C(c1cccc(N(C)C(C)=O)c1)O2 (stereo not given) | 165 to 168 °C
69 | CCCc1c(C(=O)N2CCOCC2)c2ccc(C(N)=O)cc2n1Cc1ccccc1Cl | 229 to 230 °C
70 | Nc1c(-c2ccc(-c3ccccc3)cc2)nc2c(Cl)cc(Cl)cc2c1C(=O)O | 244 to 245 °C
